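Step 1: Grow cells in 96-well plates. Step 2: Expose to compound for 48 hours at 5 concentrations. Step 3: Interpolate endpoints linearly; if unreached, use highest concentration. GI50: concentration for 50% inhibition of growth. TGI: concentration producing complete growth inhibition.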
What was measured:
Experiment in all cases: DTP human tumour cell line panel, 48 h
786-0 renal = test system: 786-0 renal
A498 renal = test system: A498 renal
A549 NSCLC = test system: A549 NSCLC
ACHN renal = test system: ACHN renal
BT-549 breast = test system: BT-549 breast
CAKI-1 renal = test system: CAKI-1 renal
CCRF-CEM leukemia = test system: CCRF-CEM leukemia
COLO 205 colon = test system: COLO 205 colon
DU-145 prostate = test system: DU-145 prostate
EKVX NSCLC = test system: EKVX NSCLC
HCC-2998 colon = test system: HCC-2998 colon
HCT-116 colon = test system: HCT-116 colon
HCT-15 colon = test system: HCT-15 colon
HL-60(TB) leukemia = test system: HL-60(TB) leukemia
HOP-62 NSCLC = test system: HOP-62 NSCLC
HOP-92 NSCLC = test system: HOP-92 NSCLC
HS 578T breast = test system: HS 578T breast
HT29 colon = test system: HT29 colon
IGROV1 ovarian = test system: IGROV1 ovarian
K-562 leukemia = test system: K-562 leukemia
KM12 colon = test system: KM12 colon
LOX IMVI melanoma = test system: LOX IMVI melanoma
MALME-3M melanoma = test system: MALME-3M melanoma
MCF7 breast = test system: MCF7 breast
MDA-MB-231 breast = test system: MDA-MB-231 breast
MDA-MB-435 = test system: MDA-MB-435
MOLT-4 leukemia = test system: MOLT-4 leukemia
NCI-H226 lung = test system: NCI-H226 lung
NCI-H23 lung = test system: NCI-H23 lung

CSC1=Nc2c(c(C)c(-c3ccccc3)n2COC(CO)CO)C2=NC(=O)C(C)N12 (configuration not stated)
GI50 (786-0 renal): > 100 µM
TGI (786-0 renal): > 100 µM
GI50 (A498 renal): > 100 µM
TGI (A498 renal): > 100 µM
GI50 (A549 NSCLC): > 100 µM
TGI (A549 NSCLC): > 100 µM
GI50 (ACHN renal): > 100 µM
TGI (ACHN renal): > 100 µM
GI50 (BT-549 breast): > 100 µM
TGI (BT-549 breast): > 100 µM
GI50 (CAKI-1 renal): > 100 µM
TGI (CAKI-1 renal): > 100 µM
GI50 (CCRF-CEM leukemia): > 100 µM
TGI (CCRF-CEM leukemia): > 100 µM
GI50 (COLO 205 colon): > 100 µM
TGI (COLO 205 colon): > 100 µM
GI50 (DU-145 prostate): > 100 µM
TGI (DU-145 prostate): > 100 µM
GI50 (EKVX NSCLC): > 100 µM
TGI (EKVX NSCLC): > 100 µM
GI50 (HCC-2998 colon): > 100 µM
TGI (HCC-2998 colon): > 100 µM
GI50 (HCT-116 colon): > 100 µM
TGI (HCT-116 colon): > 100 µM
GI50 (HCT-15 colon): > 100 µM
TGI (HCT-15 colon): > 100 µM
GI50 (HL-60(TB) leukemia): 3.69 µM
TGI (HL-60(TB) leukemia): > 100 µM
GI50 (HOP-62 NSCLC): > 100 µM
TGI (HOP-62 NSCLC): > 100 µM
GI50 (HOP-92 NSCLC): > 100 µM
TGI (HOP-92 NSCLC): > 100 µM
GI50 (HS 578T breast): > 100 µM
TGI (HS 578T breast): > 100 µM
GI50 (HT29 colon): > 100 µM
TGI (HT29 colon): > 100 µM
GI50 (IGROV1 ovarian): 26.5 µM
TGI (IGROV1 ovarian): > 100 µM
GI50 (K-562 leukemia): > 100 µM
TGI (K-562 leukemia): > 100 µM
GI50 (KM12 colon): > 100 µM
TGI (KM12 colon): > 100 µM
GI50 (LOX IMVI melanoma): > 100 µM
TGI (LOX IMVI melanoma): > 100 µM
GI50 (MALME-3M melanoma): > 100 µM
TGI (MALME-3M melanoma): > 100 µM
GI50 (MCF7 breast): > 100 µM
TGI (MCF7 breast): > 100 µM
GI50 (MDA-MB-231 breast): > 100 µM
TGI (MDA-MB-231 breast): > 100 µM
GI50 (MDA-MB-435): > 100 µM
TGI (MDA-MB-435): > 100 µM
GI50 (MOLT-4 leukemia): 29.6 µM
TGI (MOLT-4 leukemia): > 100 µM
GI50 (NCI-H226 lung): > 100 µM
TGI (NCI-H226 lung): > 100 µM
GI50 (NCI-H23 lung): > 100 µM
